We go through one sequence from US8044022B2, “Hyaluronic acid binding peptides enhance host defense against pathogenic bacteria” (priority 2005, dated 2011).

One test has as its system S. aureus PS80. Nature of the test: Modified NCCLS macrodilution broth method, antimicrobial activity. The following applies: 1, 10 and 100 ug/mL; quantitative cultures at 4, 8, 24 h; vs controls without HABPs. The class given is cell-based, Staphylococcus aureus. The protocol: The antimicrobial activity of HABP35 and HABP53 was determined using a modified National Committee for Clinical Laboratory Standards (NCCLS) macrodilution broth method. S. aureus PS80 was grown overnight on tryptic soy agar plates containing 5% sheep blood. Colonies were suspended in sterile saline and dilutions made to achieve a final concentration of 5×10^5 CFU/ml in each tube containing 5 ml of Mueller-Hinton and BP35 or 53. The HABPs were tested at 1, 10, and 100 ug/mL concentrations. Once inoculated, the tubes were incubated in ambient air at 37° C. and bacterial concentration determined at 4, 8, and 24 hours. Modification of testing parameters included the 10 fold dilution of the HABPs and the determination of bacterial counts at 4, 8 and 24 hours rather than the visual determination of growth or inhibition.

The subject of the next test is S. aureus strain PS80. The test is described as follows: Mouse model of S. aureus surgical wound infection. The test is classed as in vivo, C57BL6 mice. The method, then:
Bacterial strains. S. aureus strain PS80 (serotype 8) was obtained from the American Type Culture collection (#27700) and is a potent inducer of intraabdominal abscess formation. S. aureus COL is a methicillin resistant strain that produces a serotype 5 capsule. Staphylococci were cultivated for 24 h at 37° C. on Columbia agar (Difco Laboratories, Detroit, Mich.) supplemented with 2% NaCl.
Mouse model of S. aureus wound infection. Mice (C57BL6, male, 6-8 wk old) were obtained from Jackson Laboratories (Bar Harbor, Me.). Groups of mice (N=4/group/experiment) were anesthetized with 100 mg/kg ketamine and 10 mg/kg xylazine, their right thighs were shaved, and the surgical area was disinfected with iodine and 70% ethanol. An incision was made in the skin to expose the thigh muscle, and a 1-cm incision was made with a scalpel into the thigh muscle to the depth of the bone. The muscle was then closed with one 4-0 silk suture, and 10 μl of a S. aureus suspension ranging in dose from 10^2 to 10^4 CFU was introduced into the incision under the suture. The skin was closed with four additional Prolene sutures. The mice were euthanized at 3 days post-surgery. The wounded muscle tissue was excised, weighed (˜0.08 g), and homogenized in 1 ml of tryptic soy broth. Serial dilutions of the homogenates were plated in duplicate and results were expressed as CFU/g tissue. Peptides were administered to animals in two ways. For most experiments, HABPs were solubilized in PBS and administered with a pipet into the wound in a 10 μl volume following challenge with bacteria. A 100 μg dose was used for most experiments. For therapeutic studies, peptide was administered via a 1 ml tuberculin syringe fitted with a 25 gauge needle in a 0.25 ml volume injected into the thigh muscle containing the wound distal from the incision site.
Gross pathology and histologic analysis of host response. […] Histological examination of these wounds confirmed these findings. Muscle tissue was harvested from mice at designated intervals post-surgery, fixed in 10% buffered formalin, and mounted in paraffin; 5 to 6-μm sections were cut and stained with hematoxylin and eosin for microscopic examination. […] The cellular infiltrate was primarily comprised of PMNs and fibrin.
Statistical analyses. All animal experiments were performed at least two times and the data pooled. Comparison of S. aureus CFU/g tissue was made by the Welch modification of the unpaired Student t test (InStat, GraphPad Software, San Diego, Calif.).

A further test concerns leukocyte adhesion to HA. Particulars: cited from earlier work.
A further test deals with contact hypersensitivity. Particulars: mice; cited from earlier work.

Regarding GAHWQFNALTVRGGGS [HABP52], the “growth of S. aureus” value in the test on S. aureus PS80 is recorded as “not inhibited”. Moreover, the “bacterial burden at the wound site compared with PBS” value in the test with S. aureus strain PS80 (100 μg into wound at time of challenge with 10^2 CFU, 3 days later) is on record as “significant decrease”. Besides, in the test on S. aureus strain PS80 (challenge with 10^3 CFU, 3 days), the “log reduction in bacterial numbers vs PBS” value is reported as around 3 log. In the test on leukocyte adhesion to HA, the “leukocyte adhesion to HA” value is reported as “inhibit leukocyte adhesion to HA”. In addition, the contact hypersensitivity responses result with contact hypersensitivity was “inhibits contact hypersensitivity responses”.
